Measured values reported in US8790902B2, “Microorganisms having enhanced tolerance to inhibitors and stress” (UT-Batelle, LLC, priority 2009, dated 2014).
Read-outs that look alike come from different tables or passages of the source.

Legend:
[1] = system: Zymomonas mobilis ZM4 wild-type; assay: Bioscreen growth of Z. mobilis ZM4 wild-type in RM with inhibitors; format: cell-based; conditions: for Final Cell Density / Growth rate: ZM4
Procedure: (§1) FIGS. 3A-3C. […] Z. mobilis strains were grown in RM (pH5.0) overnight, 20-μL culture were then transferred into 250-μL, RM media in the Bioscreen plate. […] Strains included in this study are: ZM4: Zymomonas mobilis ZM4 wild-type; AcR: ZM4 acetate tolerant mutant (Joachimstahl 1998); ZM4 (p42-0347): ZM4 containing a gateway plasmid p42-0347 over-expressing ZM4 gene ZMO0347; AcRIM0347: AcR insertional mutant of ZMO0347; AcRIM0347 (p42-0347): AcRIM0347 containing gateway plasmid p42-0347 over-expressing ZM4 gene ZMO0347. […] Triplicates were used for each condition.
(§2) FIGS. 4A-4E. […] Z. mobilis strains were grown in RM (pH5.0) overnight, 5-μL culture were then transferred into 250-μL RM media in the Bioscreen plate. […] Strains included in this study are: ZM4: Zymomonas mobilis ZM4 wild-type; AcR: ZM4 acetate tolerant mutant; ZM4 (p42-0347): ZM4 containing a gateway plasmid p42-0347 to express ZM4 gene ZMO0347; AcRIM0347: AcR insertional mutant of ZMO0347; AcRIM0347 (p42-0347): AcRIM0347 containing gateway plasmid p42-0347. […] Duplicate biological replicates were used for each condition.
(§3) FIGS. 5A-5E. […] Z. mobilis strains were grown in RM (pH 5.0) overnight, 5-μL culture were then transferred into 250-μL RM media in the Bioscreen plate. […] Strains included in this study are: ZM4: Zymomonas mobilis ZM4 wild-type; AcR: ZM4 acetate tolerant mutant; AcRIM0347: AcR insertional mutant of ZMO0347; AcRIM0347 (p42-0347): AcRIM0347 containing gateway plasmid p42-0347 over-expressing ZM4 gene ZMO0347.
(§4) American Type Culture Collection (ATCC31821) and the Z. mobilis acetate tolerant strain AcR has been described previously (Joachimsthal et al. 2000). ZM4 and AcR were cultured in RM medium at 30° C. S. cerevisiae wild-type, deletion mutant and GST-fusion ORF over-expression strains were obtained through Open Biosystems (Huntsville, Ala.). S. cerevisiae strains were cultured in rich YPD media. CM media with 2% glucose was used for S. cerevisiae wild-type and S. cerevisiae deletion mutants, CM media with 2% glucose minus uracil was used for S. cerevisiae GST-over expressing strains, 2% galactose was used to induce the GST-fusion strains. Plasmid-containing strains were routinely grown with antibiotics at the following concentrations (μg/mL): kanamycin of 50 for E. coli and 200 for ZM4; tetracycline, 10 for E. coli and 20 for ZM4; and gentamicin, 10 for E. coli. G418 of 200 for S. cerevisiae YKO deletion mutants. Growth was monitored turbidometrically by measuring optical density at 600nm periodically with the Bioscreen C automated microbiology growth curve analysis system (Growth Curve USA, Piscataway, N.J.).

AcRIM0347 (p42-0347) = format: cell-based, Zymomonas mobilis
Procedure: as §1, §2, §3, §4

[2] = system: AcR: ZM4 acetate tolerant mutant; format: cell-based, Zymomonas mobilis; conditions: for Final Cell Density / Growth rate: AcR
Procedure: as §1, §2, §3, §4

[3] = system: AcRIM0347: AcR insertional mutant of ZMO0347; format: cell-based, Zymomonas mobilis; conditions: for Final Cell Density / Growth rate: AcRIM0347
Procedure: as §1, §2, §3, §4

ZM4 (p42-0347) = assay: Bioscreen growth of ZM4 (p42-0347) in RM with sodium and acetate ions; format: cell-based, Zymomonas mobilis; conditions: ZM4 (p42-0347); RM pH 5.0 supplemented with 195 mM of the chemical, anaerobic
Procedure: as §1, §2, §4

[4] = system: S. cerevisiae Lsm deletion mutants; format: cell-based; conditions: 305 mM NaCl in CM broth
Procedure: (§5) FIGS. 6A-6B. […] S. cerevisiae strains were grown in CM with 2% glucose for wild-type BY4741 and the deletion mutants, CM with 2% glucose minus uracil for GST over-expression strains. Five-μL culture was then transferred into 300-μL CM broth in the Bioscreen plate.
(§6) FIGS. 7A-7P. […] S. cerevisiae strains were grown in CM with 2% glucose (CM+glucose) for wild-type BY4741 and the deletion mutants, CM with 2% glucose and 2% galactose minus uracil (CM+glucose+2% galactose) for GST overexpression strains. A 5-μL culture was then transferred into 250-μL CM broth in the Bioscreen plate.
American Type Culture Collection (ATCC31821) and the Z. mobilis acetate tolerant strain AcR has been described previously (Joachimsthal et al. 2000). ZM4 and AcR were cultured in RM medium at 30° C. S. cerevisiae wild-type, deletion mutant and GST-fusion ORF over-expression strains were obtained through Open Biosystems (Huntsville, Ala.). S. cerevisiae strains were cultured in rich YPD media. […] Growth was monitored turbidometrically by measuring optical density at 600nm periodically with the Bioscreen C automated microbiology growth curve analysis system (Growth Curve USA, Piscataway, N.J.).

[5] = system: S. cerevisiae Lsm protein over-expressing strains; assay: Bioscreen growth of S. cerevisiae Lsm protein over-expressing (GST) strains with inhibitors; format: cell-based
Procedure: as §5, §6, §4

Z. mobilis = assay: Bioscreen growth of Z. mobilis with pretreatment inhibitors (strain not specified); format: cell-based, Zymomonas mobilis; conditions: in the presence of the inhibitor; 11 h without any inhibitor (FIGS. 5A-5D)
Procedure: FIGS. 5A-5E. Z. mobilis Hfq conferred tolerance to different classes of pretreatment inhibitors. Z. mobilis strains were grown in RM (pH 5.0) overnight, 5-μL culture were then transferred into 250-μL RM media in the Bioscreen plate. The growth differences of different strains were monitored by Bioscreen (Growth Curves USA, NJ) under anaerobic conditions in RM, pH 5.0 (A), RM with 1 g/L vanillin, pH 5.0 (B), 1 g/L furfural, pH 5.0 (C), 1 g/L HMF, pH 5.0 (D) and 0.001% H2O2 (E). Strains included in this study are: ZM4: Zymomonas mobilis ZM4 wild-type; AcR: ZM4 acetate tolerant mutant; AcRIM0347: AcR insertional mutant of ZMO0347; AcRIM0347 (p42-0347): AcRIM0347 containing gateway plasmid p42-0347 over-expressing ZM4 gene ZMO0347. This experiment has been repeated at least three times with similar result for hydrogen peroxide growth and in duplicate for the vanillin growth.
as §4

[6] = pH 5.0; cited from earlier work
[7] = system: recombinant Zymomonas mobilis 8b; conditions: pure glucose/xylose solutions; cited from earlier work
[8] = RM pH 5.0 supplemented with 195 mM of the chemical, anaerobic, NA = lack of growth
[9] = AcRIM0347 (p42-0347), RM pH 5.0 supplemented with 195 mM of the chemical, anaerobic
[10] = RM pH 5.0 supplemented with 195 mM of the chemical, anaerobic
[11] = RM with HMF 0.75 g/L, furfural or vanillin 1 g/L
[12] = AcRIM0347(p42-0347), RM with HMF 0.75 g/L, furfural or vanillin 1 g/L

Structure (SMILES): OO [H2O2, hydrogen peroxide]
- Growth of ZM4 in RM medium with H2O2 ([1]; 0.001% H2O2): grew well
- Growth of AcRIM0347(p42-0347) in RM medium with H2O2 (AcRIM0347 (p42-0347); 0.001% H2O2): to grow
- Growth of AcR in RM medium with H2O2 ([2]; 0.001% H2O2): grew well
- Growth of AcRIM0347 in RM medium with H2O2 ([3]; 0.001% H2O2): no observable growth

Structure (SMILES): CC(=O)[O-].[K+] [Kac, potassium acetate]
- Final Cell Density (ZM4 (p42-0347)): 0.34 ± 0.004 OD600 nm
- Growth rate (ZM4 (p42-0347)): 0.12 ± 0.006 h⁻¹
- Final Cell Density [1, 8]: 0.42 ± 0.002 OD600 nm
- Growth rate [1, 8]: 0.15 ± 0.004 h⁻¹
- Final Cell Density (AcRIM0347 (p42-0347); [9]): 0.28 ± 0.007 OD600 nm
- Growth rate (AcRIM0347 (p42-0347); [9]): 0.09 ± 0.003 h⁻¹
- Final Cell Density [2, 10]: 0.40 ± 0.000 OD600 nm
- Growth rate [2, 10]: 0.12 ± 0.000 h⁻¹
- Growth of hfq mutant AcRIM0347 in the presence of acetate salt ([3]; 195 mM in RM): unable to grow

Structure (SMILES): [Cl-].[Na+] [NaCl, sodium chloride]
- Final Cell Density (ZM4 (p42-0347)): 0.84 ± 0.01 OD600 nm
- Growth rate (ZM4 (p42-0347)): 0.25 ± 0.008 h⁻¹
- Relative inhibitory effect on wild-type Z. mobilis growth among sodium and acetate salts ([1]; 195 mM in RM): least negative influence
- Final Cell Density [1, 8]: 0.73 ± 0.01 OD600 nm
- Growth rate [1, 8]: 0.24 ± 0.008 h⁻¹
- Growth differences between Lsm mutants and wild-type BY4741 [4]: not observed
- Final Cell Density (AcRIM0347 (p42-0347); [9]): 0.72 ± 0.02 OD600 nm
- Growth rate (AcRIM0347 (p42-0347); [9]): 0.22 ± 0.009 h⁻¹
- Final Cell Density [2, 10]: 0.96 ± 0.01 OD600 nm
- Growth rate [2, 10]: 0.29 ± 0.005 h⁻¹
- Reduction of growth rate and final cell density of AcRIM0347 compared to parental strain AcR ([3]; 195 mM in RM): reduced by at least a quarter
- Final Cell Density [3, 8]: 0.73 ± 0.03 OD600 nm
- Growth rate [3, 8]: 0.21 ± 0.008 h⁻¹
- Growth of Lsm overexpression strains compared to wild-type BY4741 ([5]; 305 mM NaCl): grew similarly to wild-type BY4741

Structure (SMILES): O=Cc1ccco1 [Furfural, furfural]
- Time to complete active growth and reach the stationary phase (Z. mobilis): ~19 h
- Final Cell Density [1, 11]: 0.88 ± 0.006 OD600 nm
- Growth rate [1, 11]: 0.31 ± 0.01 h⁻¹
- Final Cell Density (AcRIM0347 (p42-0347); [12]): 0.80 ± 0.02 OD600 nm
- Growth rate (AcRIM0347 (p42-0347); [12]): 0.20 ± 0.01 h⁻¹
- Lag phase of AcRIM0347 (p42-0347) versus AcRIM0347 grown with inhibitor (AcRIM0347 (p42-0347); Table 4, FIGS. 5A-5D): shorter lag phases
- Final Cell Density [2, 11]: 0.89 ± 0.009 OD600 nm
- Growth rate [2, 11]: 0.30 ± 0.005 h⁻¹
- Final Cell Density [3, 11]: 0.67 ± 0.001 OD600 nm
- Growth rate [3, 11]: 0.19 ± 0.03 h⁻¹
- Growth of Lsm overexpression strains with inhibitor ([5]; 1.5 g/L): slight growth advantage

Structure (SMILES): CC(=O)O [acetic acid]
- Fraction in the uncharged and undissociated form (HAc) [6]: 36%
- Acetic acid concentration tolerated [7]: up to 16 g/L
